One test deals with T1, bovine trypsin (Bos taurus, UniProt P00760).
T1 sequence (P00760 24-246): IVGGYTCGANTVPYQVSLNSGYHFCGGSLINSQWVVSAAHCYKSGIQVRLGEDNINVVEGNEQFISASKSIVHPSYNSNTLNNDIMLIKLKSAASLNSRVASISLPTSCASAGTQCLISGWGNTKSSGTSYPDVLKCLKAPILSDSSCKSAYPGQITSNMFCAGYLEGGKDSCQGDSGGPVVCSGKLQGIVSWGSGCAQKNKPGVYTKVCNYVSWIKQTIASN
Nature of the test: Antitrypsin activity: inhibition of S-2238 decomposition. It counts as biochemical. The following applies: Table 2; substrate S-2238, pH 8.1, 37° C.; read-out: Trypsin S-2238 I50. The protocol: Determination of inhibition activity against S-2238 decomposition
An inhibitor sample is dissolved in a 0.05 M Tris-imidazole buffer solution (pH=8.1) and 125 μl of a 1 mM S-2238 solution is added to make the total volume to 1.20 ml. The mixture is incubated at a temperature of 37° C. for 5 minutes in a constant temperature bath. To this mixture, 0.05 ml of bovine trypsin is added and the absorbance, at 405 nm, of the p-nitroaniline formed per minute is determined at a temperature of 37° C. by using the so-called initial velocity method. Thus, the concentration I50 (μmol) of a inhibitor sample, at which the absorbance is one half (i.e., 1/2) of that obtained in the absence of the inhibitor sample, is determined.

For another test, the target named is human plasma kallikrein (Homo sapiens, UniProt P03952). Briefly: Anti-plasma kallikrein activity: inhibition of S-2302 decomposition. It counts as biochemical. The following applies: Table 2; substrate S-2302, pH 7.8, 37° C.; read-out: Plasma Kallikrein S-2302 I50. As to the method:
Determination of inhibition activity for S-2302 decomposition
(§1) An inhibitor sample is dissolved in a 0.05 M Tris-hydrochloric acid buffer solution (pH=7.8) to make the total volume to 400 μl. To this solution, 50 μl of a 2 mM S-2302 solution is added and the mixture is incubated at a temperature of 37° C. for 5 minutes in a constant temperature bath. Then, 50 μl of a 0.12 unit/ml human plasma kallikrein is added and the mixture is incubated at a temperature of 37° C. for 5 minutes. Thereafter, 50 μl of 50% acetic acid is added to terminate the reaction. The absorbance of the p-nitroaniline formed in the reaction mixture is measured at 405 nm. Thus, the concentration I50 (μmol) of the inhibitor sample, at which the absorbance is one half (i.e., 1/2) of that obtained in the absence of the inhibitor sample, is determined.

The target in another test is T2, bovine thrombin (Bos taurus, UniProt P00735).
T2 construct: a 0.2 unit/ml bovine thrombin solution
Briefly: Antithrombin activity: inhibition of fibrin formation (fibrinogen). It counts as biochemical. As to the method: (i) Determination of inhibition activity against fibrin formation
An inhibitor sample is dissolved in a 0.18 M borate-physiological salt buffer solution (pH= 7.4) to make the total volume to 500 μl. […] Thus, a coagulation time is determined. The inhibitor concentration I50 (μmol), at which the coagulation time obtained in the absence of the inhibitor is extended twice, is determined.

A further test has as its target human urokinase (Homo sapiens, UniProt P00749). Nature of the test: biochemical. As to conditions: Table 2; substrate S-2444, pH 8.8, 37° C.; read-out: Urokinase S-2444 I50. As to the method: Determination of inhibition activity for S-2444 decomposition
as §1, with “solution (pH=8.8)” for “solution (pH=7.8)”, “a 1” for “a 2”, “mM S-2444” for “mM S-2302”, “a 500” for “a 0.12”, “human urokinase” for “human plasma kallikrein”

The target in test [1] is T3, human plasmin (Homo sapiens, UniProt P00747). Nature of the test: Antiplasmin activity: inhibition of S-2251 decomposition. It counts as biochemical. As to conditions: Table 2; substrate S-2251, pH 7.4, 37° C. As to the method: An inhibitor sample is dissolved in a 0.05 M Tris-hydrochloric acid buffer solution (pH=7.4) to make the total volume to 400 μl. […] Then, 50 μl of a 0.2 casein unit/ml human plasmin is added and the mixture is incubated at a temperature of 37° C. for 4 minutes. Thereafter, the reaction is stopped by adding 50 μl of 50% acetic acid.
Thus, the concentration I50 (μmol) of the inhibitor sample, at which the absorbance is one half (i.e., 1/2) of that obtained in the absence of the inhibitor, is determined.

Test [2] concerns the target T3, human plasmin. Briefly: Antiplasmin activity: inhibition of fibrin decomposition. The format is biochemical. The following applies: Table 2, pH 7.4, 37° C., read-out: Plasmin Fibrin I50 (concentration doubling fibrin dissolution time). The protocol: (i) Determination of inhibition activity for fibrin decomposition
An inhibitor sample is dissolved in a 0.18 M borate-physiological salt buffer solution (pH=7.4) to make the total volume to 600 μl. To this buffer solution, 200 μl of a 0.2% bovine fibrinogen, 100 μl of a 0.3 casein unit/ml human plasmin solution, and 100 μl of a 50 unit/ml bovine thrombin solution, all dissolved in the above-mentioned buffer, are added at a temperature of 37° C. in a constant temperature bath. Then, the dissolution time of the fibrin mass formed above is determined.

Where [3] appears, read: Table 2, bovine fibrinogen, pH 7.4, 37° C., read-out: Thrombin Fibrinogen I50 (concentration doubling coagulation time).

The results in this text go back to patent US4873253A, “Phenylalanine derivative and proteinase inhibitor” (Okamoto; Shosuke, priority 1987, dated 1989).

SMILES strings stand for the structures. Counter-ions that a name gives are not always drawn. Like-named read-outs stand apart in the source and are kept apart here. A value given as a limit tells only on which side of the number the result lay.

T3 sequence (P00747 581-810 limits assumed): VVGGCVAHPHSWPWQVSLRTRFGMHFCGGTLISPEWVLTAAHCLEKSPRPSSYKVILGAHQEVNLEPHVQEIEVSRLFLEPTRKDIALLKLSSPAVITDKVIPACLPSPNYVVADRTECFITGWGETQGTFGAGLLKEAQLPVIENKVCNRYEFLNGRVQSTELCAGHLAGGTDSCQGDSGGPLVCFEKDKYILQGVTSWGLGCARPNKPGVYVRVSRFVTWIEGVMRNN
T3 sequence (P00747 97-580 limits assumed): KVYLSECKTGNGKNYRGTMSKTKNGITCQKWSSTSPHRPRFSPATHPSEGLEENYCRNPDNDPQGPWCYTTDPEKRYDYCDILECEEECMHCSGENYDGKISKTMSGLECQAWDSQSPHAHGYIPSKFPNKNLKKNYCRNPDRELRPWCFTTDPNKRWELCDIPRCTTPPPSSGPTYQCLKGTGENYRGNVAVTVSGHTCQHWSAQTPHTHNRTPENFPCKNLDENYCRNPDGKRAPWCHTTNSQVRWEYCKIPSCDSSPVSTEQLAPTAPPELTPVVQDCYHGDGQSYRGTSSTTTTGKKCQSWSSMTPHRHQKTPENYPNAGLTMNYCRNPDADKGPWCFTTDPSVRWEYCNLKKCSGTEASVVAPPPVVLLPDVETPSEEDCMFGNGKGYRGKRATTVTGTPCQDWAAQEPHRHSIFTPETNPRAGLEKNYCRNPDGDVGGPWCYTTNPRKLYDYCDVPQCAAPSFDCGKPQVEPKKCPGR
Chain of human plasma kallikrein (P03952 391-638 limits assumed): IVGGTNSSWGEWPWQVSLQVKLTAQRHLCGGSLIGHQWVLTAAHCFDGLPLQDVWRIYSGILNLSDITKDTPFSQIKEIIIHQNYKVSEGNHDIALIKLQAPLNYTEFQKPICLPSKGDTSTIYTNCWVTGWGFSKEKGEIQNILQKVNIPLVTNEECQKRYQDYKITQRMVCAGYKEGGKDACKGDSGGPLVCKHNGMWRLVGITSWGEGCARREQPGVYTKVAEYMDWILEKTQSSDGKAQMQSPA
Chain of human plasma kallikrein (P03952 20-390 limits assumed): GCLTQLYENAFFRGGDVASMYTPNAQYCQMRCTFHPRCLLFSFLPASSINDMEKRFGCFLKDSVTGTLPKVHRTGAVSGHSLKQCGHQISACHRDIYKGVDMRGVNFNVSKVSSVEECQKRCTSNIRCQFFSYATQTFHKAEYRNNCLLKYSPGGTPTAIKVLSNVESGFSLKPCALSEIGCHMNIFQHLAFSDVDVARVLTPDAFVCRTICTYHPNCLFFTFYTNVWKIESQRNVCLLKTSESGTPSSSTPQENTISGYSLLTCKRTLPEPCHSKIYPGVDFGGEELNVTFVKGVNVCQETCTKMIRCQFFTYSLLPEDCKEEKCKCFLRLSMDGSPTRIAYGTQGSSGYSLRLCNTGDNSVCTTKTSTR

On to `NC[C@H]1CC[C@H](C(=O)NC(Cc2cccc(Oc3ccccc3)c2)C(=O)Nc2ncccc2C(=O)O)CC1` (mixture of isomers) [Compound 10, N-(trans-4-aminomethylcyclohexylcarbonyl)-3-phenoxy-DL-phenylalanine 2-nicotinylamide dihydrobromide], for which the IC50 was greater than 150 µM at bovine trypsin, greater than 250 µM on human plasma kallikrein, greater than 125 µM on bovine thrombin (setting [3]) and greater than 250 µM on human urokinase.

As to `CCOC(=O)c1ccccc1NC(=O)C(Cc1cccc(Oc2ccccc2)c1)NC(=O)[C@H]1CC[C@H](CN)CC1` (mixture of isomers) [Compound 4, N-(trans-4-aminomethylcyclohexylcarbonyl)-3-phenoxy-DL-phenylalanine 2-ethoxycarbonylanilide hydrochloride], the IC50 at bovine trypsin is greater than 150 µM; against human plasmin [1] it was greater than 100 µM; at human plasma kallikrein it was greater than 100 µM; against bovine thrombin, greater than 50 µM; on human urokinase it was greater than 200 µM.

As for `NC[C@H]1CC[C@H](C(=O)NC(Cc2cccc(OCc3ccccc3)c2)C(=O)Nc2cccnc2)CC1` (mixture of isomers) [Compound 22, N-(trans-4-aminomethylcyclohexylcarbonyl)-3-benzyloxy-DL-phenylalanine 3-pyridylamide dihydrochloride], the IC50 on bovine trypsin was greater than 150 µM; on human plasmin [2], greater than 500 µM; against human plasmin [1], greater than 1000 µM; at human plasma kallikrein it was greater than 500 µM; at bovine thrombin (setting [3]) it was greater than 500 µM.

In the case of `CC(=O)c1ccc(NC(=O)C(Cc2cccc(Oc3ccccc3)c2)NC(=O)[C@H]2CC[C@H](CNC(=N)N)CC2)cc1` (mixture of isomers) [Compound 30, N-(trans-4-guanidinomethylcyclohexylcarbonyl)-3-phenoxy-DL-phenylalanine 4-acetylanilide methane sulfonate], the IC50 was greater than 150 µM on bovine trypsin, greater than 50 µM at human plasmin [2], greater than 20 µM on human plasmin [1] and greater than 10 µM on human plasma kallikrein.

On to `CCOC(=O)C1CCN(C(=O)C(Cc2cccc(Oc3ccccc3)c2)NC(=O)c2ccc(NC(=N)N)cc2)CC1` (racemic) [Compound 34, N-(4-guanidinobenzoyl)-3-phenoxy-DL-phenylalanine 4-ethoxycarbonyl piperidinoamide methane sulfonate], for which the IC50 on bovine trypsin was greater than 150 µM; on human plasma kallikrein it was 270 µM; at bovine thrombin (setting [3]), greater than 50 µM; on human urokinase, greater than 200 µM.

Regarding `N=C(N)Nc1ccc(C(=O)NC(Cc2cccc(Oc3ccccc3)c2)C(=O)N2CCC(C(=O)O)CC2)cc1` (racemic) [Compound 35, N-(4-guanidinobenzoyl)-3-phenoxy-DL-phenylalanine 4-hydroxycarbonyl piperidinoamide methane sulfonate], the IC50 is 240 µM at bovine trypsin, greater than 200 µM at human plasmin [2], greater than 500 µM at human plasmin [1] and greater than 500 µM on human plasma kallikrein.

For the molecule `N=C(N)Nc1ccc(C(=O)NC(Cc2cccc(Oc3ccccc3)c2)C(=O)Nc2ccc(CC(=O)O)cc2)cc1` (racemic) [Compound 36, N-(4-guanidinobenzoyl)-3-phenoxy-DL-phenylalanine 4-hydroxycarbonylmethylanilide hydrochloride], the IC50 on bovine trypsin is 17 µM; on human plasmin [2] it was greater than 25 µM; on human plasmin [1], 25 µM; at human plasma kallikrein, 1.9 µM.

Turning to `NC[C@H]1CC[C@H](C(=O)NC(Cc2cccc(Oc3ccccc3)c2)C(=O)Nc2cccnc2)CC1` (stereo partly drawn) [Compound 7], the IC50 is 15 µM on bovine trypsin, 2 µM on human plasma kallikrein and greater than 1000 µM on bovine thrombin (setting [3]).

In the case of `NC[C@H]1CC[C@H](C(=O)NC(Cc2cccc(Oc3ccccc3)c2)C(=O)Nc2ncc[nH]2)CC1` (stereo partly drawn) [Compound 11], the IC50 is 68 µM at bovine trypsin; 220 µM at human plasmin [2]; 610 µM on human plasmin [1]; 190 µM on human plasma kallikrein; greater than 400 µM at human urokinase.

As for `NC[C@H]1CC[C@H](C(=O)NC(Cc2cccc(Oc3ccccc3)c2)C(=O)Nc2nnn[nH]2)CC1` (stereo partly drawn) [Compound 13], the IC50 on bovine trypsin is greater than 150 µM; on human plasma kallikrein, greater than 200 µM; on bovine thrombin (setting [3]), greater than 100 µM; on human urokinase, greater than 200 µM.
